{"source": "patent US12428406B2", "about": "(PMV Pharmaceuticals, Inc., priority 2019, dated 2025)"}
{"target": "T1, p53 Y220C (Homo sapiens, UniProt P04637, Y220C)", "T1 construct": "The recombinant protein was a truncation mutant containing only amino acids 94-312 of p53; made in house; host or cells: E. coli", "T1 sequence (P04637 94-312, change not shown)": "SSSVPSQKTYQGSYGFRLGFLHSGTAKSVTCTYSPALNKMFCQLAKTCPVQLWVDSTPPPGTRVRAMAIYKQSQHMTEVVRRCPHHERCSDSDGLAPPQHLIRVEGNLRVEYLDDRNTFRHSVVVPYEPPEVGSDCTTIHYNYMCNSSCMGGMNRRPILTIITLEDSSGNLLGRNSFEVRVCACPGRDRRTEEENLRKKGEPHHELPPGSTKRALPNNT", "experiment": "In vitro DNA binding activity assay (HTRF / TR-FRET): stabilization of p53 Y220C and increase of its DNA binding activity", "format": "biochemical", "conditions": "recombinant His-tagged p53 Y220C DNA binding domain (aa 94-312), biotin-labeled consensus DNA, incubated at 27° C. or 29° C. for 60 min", "summary_of_the_method": "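His-tagged p53 Y220C, E. coli-expressed, binding biotin-labeled consensus DNA measured by HTRF (anti-His-APC, streptavidin-europium). Compounds from 4.5 mM DMSO stocks, 3-fold serial dilutions; incubations at room temperature 15 min, then 20 min. SC150 = concentration raising DNA binding by 50%.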"}
{"smiles": "COc1cc(S(C)(=O)=O)ccc1NCC#Cc1cc2c(N[C@H]3CCN(C(=O)CN(C)C)C[C@H]3F)cccc2n1CC(F)(F)F", "note": "[Compound 856A, 2-(dimethylamino)-1-[(3R,4S)-3-fluoro-4-[(2-{3-[(4-methanesulfonyl-2-methoxyphenyl)amino]prop-1-yn-1-yl}-1-(2,2,2-trifluoroethyl)-1H-indol-4-yl)amino]piperidin-1-yl]ethan-1-one]", "SC150 (concentration of the compound required to increase the DNA binding activity by 50%)": "+ (+ = 0 μM ≤ SC150 < 0.05 μM)"}
{"smiles": "CNC(=O)c1ccc(NCC#Cc2cc3c(N[C@@H]4CCNC[C@@H]4F)cccc3n2CC(F)(F)F)c(OC)c1", "note": "[Compound 857A]", "SC150 (concentration of the compound required to increase the DNA binding activity by 50%)": "+ (+ = 0 μM ≤ SC150 < 0.05 μM)"}
{"smiles": "COc1cc(C(=O)O)ccc1NCC#Cc1cc2c(N[C@@H]3CCNC[C@@H]3F)cccc2n1CC(F)(F)F", "note": "[Compound 858A]", "SC150 (concentration of the compound required to increase the DNA binding activity by 50%)": "+ (+ = 0 μM ≤ SC150 < 0.05 μM)"}
{"smiles": "COCCN1CC[C@@H](Nc2cccc3c2cc(C#CCNc2ccc(S(C)(=O)=O)cc2OC)n3CC(F)(F)F)[C@@H](F)C1", "note": "[Compound 859A, N-[(3S,4R)-3-fluoro-1-(2-methoxyethyl)piperidin-4-yl]-2-{3-[(4-methanesulfonyl-2-methoxyphenyl)amino]prop-1-yn-1-yl}-1-(2,2,2-trifluoroethyl)-1H-indol-4-amine]", "SC150 (concentration of the compound required to increase the DNA binding activity by 50%)": "+ (+ = 0 μM ≤ SC150 < 0.05 μM)"}
{"smiles": "COCCN1CC[C@H](Nc2cccc3c2cc(C#CCNc2ccc(S(C)(=O)=O)cc2OC)n3CC(F)(F)F)[C@H](F)C1", "note": "[Compound 860A, N-[(3R,4S)-3-fluoro-1-(2-methoxyethyl)piperidin-4-yl]-2-{3-[(4-methanesulfonyl-2-methoxyphenyl)amino]prop-1-yn-1-yl}-1-(2,2,2-trifluoroethyl)-1H-indol-4-amine]", "SC150 (concentration of the compound required to increase the DNA binding activity by 50%)": "+ (+ = 0 μM ≤ SC150 < 0.05 μM)"}
{"smiles": "COc1cc(S(C)(=O)=O)ccc1NCC#Cc1cc2c(N[C@@H]3CCN(C(C)=O)C[C@@H]3F)cccc2n1CC(F)(F)F", "note": "[Compound 862A, 1-[(3S,4R)-3-fluoro-4-[(2-{3-[(4-methanesulfonyl-2-methoxyphenyl)amino]prop-1-yn-1-yl}-1-(2,2,2-trifluoroethyl)-1H-indol-4-yl)amino]piperidin-1-yl]ethan-1-one]", "SC150 (concentration of the compound required to increase the DNA binding activity by 50%)": "+ (+ = 0 μM ≤ SC150 < 0.05 μM)"}
{"smiles": "COc1cc(S(C)(=O)=O)ccc1NCC#Cc1cc2c(N[C@H]3CCN(C(C)=O)C[C@H]3F)cccc2n1CC(F)(F)F", "note": "[Compound 863A, 1-[(3R,4S)-3-fluoro-4-[(2-{3-[(4-methanesulfonyl-2-methoxyphenyl)amino]prop-1-yn-1-yl}-1-(2,2,2-trifluoroethyl)-1H-indol-4-yl)amino]piperidin-1-yl]ethan-1-one]", "SC150 (concentration of the compound required to increase the DNA binding activity by 50%)": "+ (+ = 0 μM ≤ SC150 < 0.05 μM)"}
{"smiles": "CCC(=O)N1CC[C@@H](Nc2cccc3c2cc(C#CCNc2ccc(S(C)(=O)=O)cc2OC)n3CC(F)(F)F)[C@@H](F)C1", "note": "[Compound 864A, 1-[(3S,4R)-3-fluoro-4-[(2-{3-[(4-methanesulfonyl-2-methoxyphenyl)amino]prop-1-yn-1-yl}-1-(2,2,2-trifluoroethyl)-1H-indol-4-yl)amino]piperidin-1-yl]propan-1-one]", "SC150 (concentration of the compound required to increase the DNA binding activity by 50%)": "+ (+ = 0 μM ≤ SC150 < 0.05 μM)"}
{"smiles": "CCC(=O)N1CC[C@H](Nc2cccc3c2cc(C#CCNc2ccc(S(C)(=O)=O)cc2OC)n3CC(F)(F)F)[C@H](F)C1", "note": "[Compound 865A, 1-[(3R,4S)-3-fluoro-4-[(2-{3-[(4-methanesulfonyl-2-methoxyphenyl)amino]prop-1-yn-1-yl}-1-(2,2,2-trifluoroethyl)-1H-indol-4-yl)amino]piperidin-1-yl]propan-1-one]", "SC150 (concentration of the compound required to increase the DNA binding activity by 50%)": "+ (+ = 0 μM ≤ SC150 < 0.05 μM)"}
{"smiles": "COCC(=O)N1CC[C@@H](Nc2cccc3c2cc(C#CCNc2ccc(S(C)(=O)=O)cc2OC)n3CC(F)(F)F)[C@@H](F)C1", "note": "[Compound 866A, 1-[(3S,4R)-3-fluoro-4-[(2-{3-[(4-methanesulfonyl-2-methoxyphenyl)amino]prop-1-yn-1-yl}-1-(2,2,2-trifluoroethyl)-1H-indol-4-yl)amino]piperidin-1-yl]-2-methoxyethan-1-one]", "SC150 (concentration of the compound required to increase the DNA binding activity by 50%)": "+ (+ = 0 μM ≤ SC150 < 0.05 μM)"}
{"smiles": "COCC(=O)N1CC[C@H](Nc2cccc3c2cc(C#CCNc2ccc(S(C)(=O)=O)cc2OC)n3CC(F)(F)F)[C@H](F)C1", "note": "[Compound 867A, 1-[(3R,4S)-3-fluoro-4-[(2-{3-[(4-methanesulfonyl-2-methoxyphenyl)amino]prop-1-yn-1-yl}-1-(2,2,2-trifluoroethyl)-1H-indol-4-yl)amino]piperidin-1-yl]-2-methoxyethan-1-one]", "SC150 (concentration of the compound required to increase the DNA binding activity by 50%)": "+ (+ = 0 μM ≤ SC150 < 0.05 μM)"}
{"smiles": "COc1cc(C(N)=O)ccc1NCC#Cc1cc2c(N[C@H]3CCNC[C@H]3F)cccc2n1CC(F)(F)F", "note": "[Compound 868A, 4-{[3-(4-{[(3R,4S)-3-fluoropiperidin-4-yl]amino}-1-(2,2,2-trifluoroethyl)-1H-indol-2-yl)prop-2-yn-1-yl]amino}-3-methoxybenzamide]", "SC150 (concentration of the compound required to increase the DNA binding activity by 50%)": "+ (+ = 0 μM ≤ SC150 < 0.05 μM)"}
{"smiles": "COC[C@H](O)CN1CC[C@@H](Nc2cccc3c2cc(C#CCNc2ccc(S(N)(=O)=O)cc2OC)n3CC(F)(F)F)[C@@H](F)C1", "note": "[Compound 869A, 4-{[3-(4-{[(3S,4R)-3-fluoro-1-[(2R)-2-hydroxy-3-methoxypropyl]piperidin-4-yl]amino}-1-(2,2,2-trifluoroethyl)-1H-indol-2-yl)prop-2-yn-1-yl]amino}-3-methoxybenzene-1-sulfonamide]", "SC150 (concentration of the compound required to increase the DNA binding activity by 50%)": "+ (+ = 0 μM ≤ SC150 < 0.05 μM)"}
{"smiles": "COc1cc(S(C)(=O)=O)ccc1NCC#Cc1cc2c(N[C@@H]3CCC4(C[C@@H]3F)OCCO4)cccc2n1CC(F)(F)F", "note": "[Compound 870A, N-[(7S,8R)-7-fluoro-1,4-dioxaspiro[4.5]decan-8-yl]-2-{3-[(4-methanesulfonyl-2-methoxyphenyl)amino]prop-1-yn-1-yl}-1-(2,2,2-trifluoroethyl)-1H-indol-4-amine]", "SC150 (concentration of the compound required to increase the DNA binding activity by 50%)": "+ (+ = 0 μM ≤ SC150 < 0.05 μM)"}
{"smiles": "COC[C@H](O)CN1CC[C@@H](Nc2cccc3c2cc(C#CCNc2ccc(C(=O)OC)cc2OC)n3CC(F)(F)F)[C@@H](F)C1", "note": "[Compound 878A]", "SC150 (concentration of the compound required to increase the DNA binding activity by 50%)": "+ (+ = 0 μM ≤ SC150 < 0.05 μM)"}
{"smiles": "COC[C@H](O)CN1CC[C@H](Nc2cccc3c2cc(C#CCNc2ccc(C(=O)OC)cc2OC)n3CC(F)(F)F)[C@H](F)C1", "note": "[Compound 879A]", "SC150 (concentration of the compound required to increase the DNA binding activity by 50%)": "+ (+ = 0 μM ≤ SC150 < 0.05 μM)"}
{"smiles": "CCCn1c(C#CCNc2c(F)cc(S(C)(=O)=O)cc2OC)cc2c(N[C@H]3CCN(C[C@@H](O)COC)C[C@H]3F)cccc21", "note": "[Compound 880A]", "SC150 (concentration of the compound required to increase the DNA binding activity by 50%)": "++++ (++++ = 0.2 μM ≤ SC150 < 1 μM)"}
{"smiles": "COc1cc(S(N)(=O)=O)ccc1NCC#Cc1cc2c(N[C@@H]3CCN(C[C@@H](O)CO)C[C@@H]3F)cccc2n1CC(F)(F)F", "note": "[Compound 882A]", "SC150 (concentration of the compound required to increase the DNA binding activity by 50%)": "+ (+ = 0 μM ≤ SC150 < 0.05 μM)"}
{"smiles": "COc1cc(S(N)(=O)=O)ccc1NCC#Cc1cc2c(N[C@H]3CCN(C[C@H](COC(C)=O)OC(C)=O)C[C@H]3F)cccc2n1CC(F)(F)F", "note": "[Compound 888A, (2R)-1-(acetyloxy)-3-[(3R,4S)-3-fluoro-4-[(2-{3-[(2-methoxy-4-sulfamoylphenyl)amino]prop-1-yn-1-yl}-1-(2,2,2-trifluoroethyl)-1H-indol-4-yl)amino]piperidin-1-yl]propan-2-yl acetate]", "SC150 (concentration of the compound required to increase the DNA binding activity by 50%)": "+ (+ = 0 μM ≤ SC150 < 0.05 μM)"}
{"smiles": "COc1cc(S(N)(=O)=O)ccc1NCC#Cc1cc2c(N[C@@H]3CCN(C[C@H](COC(C)=O)OC(C)=O)C[C@@H]3F)cccc2n1CC(F)(F)F", "note": "[Compound 890A, (2R)-1-(acetyloxy)-3-[(3S,4R)-3-fluoro-4-[(2-{3-[(2-methoxy-4-sulfamoylphenyl)amino]prop-1-yn-1-yl}-1-(2,2,2-trifluoroethyl)-1H-indol-4-yl)amino]piperidin-1-yl]propan-2-yl acetate]", "SC150 (concentration of the compound required to increase the DNA binding activity by 50%)": "+ (+ = 0 μM ≤ SC150 < 0.05 μM)"}
{"smiles": "COc1cc(S(C)(=O)=O)ccc1NCC#Cc1cc2c(N[C@H]3CCN(C(=O)CN)C[C@H]3F)cccc2n1CC(F)(F)F", "note": "[Compound 892A]", "SC150 (concentration of the compound required to increase the DNA binding activity by 50%)": "+ (+ = 0 μM ≤ SC150 < 0.05 μM)"}
{"smiles": "COc1cc(S(C)(=O)=O)ccc1NCC#Cc1cc2c(N[C@@H]3CCN(C(=O)CN)C[C@@H]3F)cccc2n1CC(F)(F)F", "note": "[Compound 893A]", "SC150 (concentration of the compound required to increase the DNA binding activity by 50%)": "+ (+ = 0 μM ≤ SC150 < 0.05 μM)"}
{"smiles": "COc1cc(S(C)(=O)=O)ccc1NCC#Cc1cc2c(N[C@H]3CCN(C[C@@H](C)O)C[C@H]3F)cccc2n1CC(F)(F)F", "note": "[Compound 894A, 1-[(3R,4S)-3-fluoro-4-[(2-{3-[(4-methanesulfonyl-2-methoxyphenyl)amino]prop-1-yn-1-yl}-1-(2,2,2-trifluoroethyl)-1H-indol-4-yl)amino]piperidin-1-yl]propan-2-ol]", "SC150 (concentration of the compound required to increase the DNA binding activity by 50%)": "+ (+ = 0 μM ≤ SC150 < 0.05 μM)"}
{"smiles": "CN1CC[C@@H](Nc2cccc3c2cc(C#CCO)n3CC(F)(F)F)[C@@H](F)C1", "note": "[Compound 895A, 3-(4-(((3S,4R)-3-fluoro-1-methylpiperidin-4-yl)amino)-1-(2,2,2-trifluoroethyl)-1H-indol-2-yl)prop-2-yn-1-ol]", "SC150 (concentration of the compound required to increase the DNA binding activity by 50%)": "+++ (+++ = 0.1 μM ≤ SC150 < 0.2 μM)"}
{"smiles": "COc1cc(C(=O)NCC(=O)O)ccc1NCC#Cc1cc2c(N[C@@H]3CCN(C)C[C@@H]3F)cccc2n1CC(F)(F)F", "note": "[Compound 896A, (4-((3-(4-(((3S,4R)-3-fluoro-1-methylpiperidin-4-yl)amino)-1-(2,2,2-trifluoroethyl)-1H-indol-2-yl)prop-2-yn-1-yl)amino)-3-methoxybenzoyl)glycine]", "SC150 (concentration of the compound required to increase the DNA binding activity by 50%)": "+ (+ = 0 μM ≤ SC150 < 0.05 μM)"}
